For test [1], the system named is apomorphine-induced stereotyped behavior and climbing. Briefly: Antagonism of apomorphine-induced stereotyped behavior and climbing. It is filed as in vivo, CF-1 mice (Charles River). Particulars: mice; for ED50: Mus musculus; for ED50 / Apomorphine antagonism ED50, stereotypy / Apomorphine antagonism ED50, climbing: head: p.o. (text: i.p.), apomorphine 1 mg/kg s.c.; for Ratio of the ED50 for stereotyped behavior to the ED50 for climbing: apomorphine-induced stereotypy/climbing.

The subject of test [2] is conditioned avoidance responding. Briefly: Conditioned avoidance, shelf-jump response test. The following applies: ip, single dose, rat. The format is in vivo, male CD rats (Charles River). An excerpt: (§1) The antipsychotic properties of the compounds of this invention were established by standard pharmacologically accepted procedures involving conditioned avoidance studies in which trained male CD rats (Charles River), 400-450 g. body weight are exposed to a fifteen second warning tone (conditioned stimulus) continued for an additional fifteen seconds accompanied by electric shock. The rat can avoid the electric shock by jumping to an exposed shelf (shelf-jump response). A response during the initial warning tone is considered an avoidance response, while a response during shock delivery is considered as escape response. The shelf-jump response test procedure follows that of Herman et al., Comm. in Psychopharm., 3, pp. 165-171 (1979). The compounds of this invention were tested at a single dose (40 mg./kg. i.p.) in this procedure and were rated relative to their inhibition of conditioned avoidance responding. A similar test procedure in which a lever press was substituted for a shelf-jump was used to establish the oral (p.o) activity of the test compounds. Orally active compounds were tested over a full dose range and the Avoidance Block activities reported as "AB50 's" (mg./kg.).

In the next test the target is T1, D-2 dopamine receptor (Rattus norvegicus, UniProt P61169).
T1 construct: from tissue; host or cells: limbic brain tissue
T1 sequence (P61169 whole entry): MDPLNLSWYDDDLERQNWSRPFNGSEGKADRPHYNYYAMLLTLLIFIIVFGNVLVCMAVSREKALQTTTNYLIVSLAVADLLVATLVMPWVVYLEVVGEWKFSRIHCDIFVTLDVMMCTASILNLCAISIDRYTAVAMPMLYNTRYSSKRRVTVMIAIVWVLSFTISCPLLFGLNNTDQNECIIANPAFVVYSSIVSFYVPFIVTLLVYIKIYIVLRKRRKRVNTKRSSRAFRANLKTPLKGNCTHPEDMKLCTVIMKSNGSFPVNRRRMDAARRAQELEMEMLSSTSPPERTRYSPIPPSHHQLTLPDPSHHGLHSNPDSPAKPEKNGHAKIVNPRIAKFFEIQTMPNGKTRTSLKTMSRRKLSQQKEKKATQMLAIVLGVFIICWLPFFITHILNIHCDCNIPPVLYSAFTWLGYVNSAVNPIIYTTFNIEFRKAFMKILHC
The test is described as follows: [3H]Spiroperidol binding inhibition, homogenized limbic brain tissue. The text has this: The results of this testing with compounds representative of the invention whose production is exemplified,infra, are as follows: […]

Test [3] concerns the target T2, 5-HT1A serotonin receptor (Rattus norvegicus, UniProt P19327).
T2 construct: 44: 1685-1696, 1985; from tissue
T2 sequence (P19327 1-422): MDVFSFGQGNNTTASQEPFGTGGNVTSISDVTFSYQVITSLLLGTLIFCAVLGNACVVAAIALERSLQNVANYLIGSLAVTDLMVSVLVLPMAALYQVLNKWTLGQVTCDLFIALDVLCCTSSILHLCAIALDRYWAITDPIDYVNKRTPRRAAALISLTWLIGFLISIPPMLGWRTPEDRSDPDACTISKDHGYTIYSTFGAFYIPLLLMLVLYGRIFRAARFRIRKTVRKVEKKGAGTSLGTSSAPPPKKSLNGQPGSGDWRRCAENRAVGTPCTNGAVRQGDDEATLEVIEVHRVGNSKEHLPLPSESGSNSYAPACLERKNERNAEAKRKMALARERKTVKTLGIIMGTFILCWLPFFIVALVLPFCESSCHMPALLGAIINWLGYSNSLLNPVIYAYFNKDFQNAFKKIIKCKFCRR
The test is described as follows: Inhibition of [3H] 8-OH DPAT binding. Particulars: for Ki / inhibition at 1 µM: 5-HT1A.
Description: 8-OH DPAT (dipropylaminotetralin) from the 5-HT1A serotonin receptor by the procedure of Hall et al., J. Neurochem.

Test [4] relates to conditioned avoidance responding. The test is described as follows: Conditioned avoidance, discrete trial (lever press), oral. It is filed as in vivo, rat. The following applies: for ED50: Rattus norvegicus, po, read-out: Conditioned avoidance, discrete trial AB50 (Avoidance Block); for Conditioned avoidance, discrete trial AB50 (Avoidance Block): p.o.
Description: as §1

Where [5] appears, read: read-out: Apomorphine antagonism ED50, climbing.
The mark [6] stands for this setting: read-out: Apomorphine antagonism ED50, stereotypy.

Read-outs that look alike come from different tables or passages of the source.

Usually inhibition in vivo stands for the percentage by which the read-out fell short of the control. Read a low inhibition in vivo as little suppression. As usually defined, the inhibition is the percentage by which the read-out fell short of the control. Read a high inhibition as a response far below the control. A word on the Ki: it is the dissociation constant of the complex between target and ligand, obtained from inhibition or displacement. Read a low Ki as tighter binding.

As for `O=C1C2CC(C(=O)N1CCCCN1CCN(c3ncccn3)CC1)C1CCCC21` (centres unmarked) [Example 1, Hexahydro-3-[4-[4-(2-pyrimidinyl)-1-piperazinyl]butyl]-1,5-methanocyclopent[d]azepine-2,4(1H,3H)-dione], the ED50 was 4.08 mg/kg in test [1] (setting [5]) and 40.1 mg/kg in test [4]. Besides, in test [1], the “Apomorphine antagonism ED50, stereotypy” value is “inactive”. The same compound registered an inhibition in vivo at 40 mg/kg in test [2] of more than 20%. Testing at 1 µM on D-2 dopamine receptor gave an inhibition of 54%. Further, the affinity in test [3] corresponds to a Ki of 3 nM.

On to `O=C1C2CC(C(=O)N1CCCCN1CCN(c3ncccn3)CC1)c1ccccc12` [Example 8, 2,3,4,5-Tetrahydro-3-[4-[4-(2-pyrimidinyl)-1-piperazinyl]butyl]-1,5-methano-1H-3-benzazepine-2,4(3H, 5H)-dione], for which, in test [1], the “Apomorphine antagonism ED50, climbing” value is “inactive” and the “Apomorphine antagonism ED50, stereotypy” value was “inactive”. In addition, the inhibition in vivo at 40 mg/kg in test [2] is more than 20%. At D-2 dopamine receptor, this compound had an inhibition at 1 µM of 23%. In addition, the inhibition at 1 µM in test [3] came out at 89%. For the same compound, the “Conditioned avoidance, discrete trial AB50 (Avoidance Block)” value (from here on “Conditioned avoidance”) in test [4] was “inactive”.

`O=C1C2CC(C(=O)N1CCCCN1CCN(c3cncc(Cl)n3)CC1)C1C2C2C3CC4C2C4C31` (centres unmarked) [Example 7, Decahydro-3-[4-[4-(6-chloro-2-pyrazinyl)-1-piperazinyl]butyl]-1,5-methano-6,7,9-metheno-2H-pentaleno[1,2-d]azepine-2,4(3H)-dione]: in test [1], the “Apomorphine antagonism ED50, climbing” value was “inactive” and the “Apomorphine antagonism ED50, stereotypy” value is “inactive”. The inhibition in vivo at 40 mg/kg in test [2] is more than 20%. This compound also came in with an inhibition at 1 µM on D-2 dopamine receptor of 54%. The compound further registered an inhibition constant (Ki) in test [3] of 6.95 nM. For the same compound, the “Conditioned avoidance” value in test [4] was “inactive”.

For `O=C1C2CC(C(=O)N1CCCCN1CCN(c3cncc(Cl)n3)CC1)c1ccccc12` [Example 9, 2,3,4,5-Tetrahydro-3-[4-[4-(6-chloro-2-pyrazinyl)-1-piperazinyl]butyl]-1,5-methano-1H-3-benzazepine-2,4(3H, 5H)-dione], in test [1], the “Apomorphine antagonism ED50, stereotypy” value is “inactive”. This compound came in with an inhibition in vivo at 40 mg/kg in test [2] of more than 20%. The inhibition at 1 µM stood at 0% at D-2 dopamine receptor and 61% in test [3].

Turning to `O=C1C2CC(C(=O)N1CCCCN1CCN(c3cncc(Cl)n3)CC1)C1CC=CC21` (centres unmarked) [Example 5, 5,5a,8,8a-Tetrahydro-3-[4-[4-(6-chloro-2-pyrazinyl)-1-piperazinyl]butyl]-1,5-methanocyclopent[d]azepine-2,4(1H,3H)-dione], the ED50 in test [1] (setting [5]) is 47.2 mg/kg. Moreover, in test [1], the “Apomorphine antagonism ED50, stereotypy” value was “inactive”. In test [2], the inhibition in vivo at 40 mg/kg was more than 20%. On D-2 dopamine receptor, this compound gave an inhibition at 1 µM of 25%. In test [3], this compound gave a Ki of 60 nM. The “Conditioned avoidance” value in test [4] is “active”.

In the case of `O=C1C2CC(C(=O)N1CCCCN1CCN(c3ncccn3)CC1)C1C2C2C3CC4C2C4C31` (centres unmarked) [Example 6, Decahydro-3-[4-[4-(2-pyrimidinyl)-1-piperazinyl]butyl]-1,5-methano-6,7,9-metheno-2H-pentaleno[1,2-d]azepine-2,4(3H)-dione], the results for the ED50 in test [1] (setting [5]) and in test [4] were 0.4 mg/kg and 33.8 mg/kg, respectively. In addition, the “Apomorphine antagonism ED50, stereotypy” value in test [1] was “inactive”. The same compound gave an inhibition in vivo at 40 mg/kg in test [2] of approximately 80%. The Ki is 56 nM on D-2 dopamine receptor and 0.23 nM in test [3].

`O=C(CCCN1CCC(O)(c2ccc(Cl)cc2)CC1)c1ccc(F)cc1` [haloperidol, reference compound]: the “Ratio of the ED50 for stereotyped behavior to the ED50 for climbing” value in test [1] is on record as 1.00.

On to `O=C1C2CC(C(=O)N1CCCCN1CCN(c3ccc4ccccc4n3)CC1)C1C2C2C3CC4C2C4C31` (centres unmarked) [Example 14, Decahydro-3-[4-[4-(2-quinolyl)-1-piperazinyl]butyl]-1,5-methano-6,7,9-methano-2H-pentaleno[1,2-d]azepine-2,4(3H)-dione], for which, in test [1] (setting [5]), the ED50 amounted to 44 mg/kg. For the same compound, the “Apomorphine antagonism ED50, stereotypy” value in test [1] was “inactive”. For the same compound, the inhibition in vivo at 40 mg/kg in test [2] was approximately 20%. Also, the inhibition at 1 µM on D-2 dopamine receptor came out at 45%; in test [3] it was 86%.

Regarding `O=C1C2CC(C(=O)N1CCCCN1CCN(c3ncccn3)CC1)C1C3CCC(C3)C21` (centres unmarked) [Example 15, Octahydro-3-[4-[4-(2-pyrimidinyl)-1-piperazinyl]butyl]-2H-1,5:6,9-dimethano-2H-3-benzazepine-2,4(3H)-dione], the ED50 in test [1] (setting [5]) turned out to be 14.3 mg/kg; in test [1] (setting [6]), 2.54 mg/kg. Besides, the inhibition in vivo at 40 mg/kg in test [2] was more than 20%. In addition, the Ki is 174 nM on D-2 dopamine receptor and 0.5 nM in test [3]. In test [4], the “Conditioned avoidance” value was “inactive”.

`O=C1C2CC(C(=O)N1CCCCN1CCN(c3cnccn3)CC1)C1C2C2C3CC4C2C4C31` (centres unmarked) [Example 13, Decahydro-3-[4-[4-(2-pyrazinyl)-1-piperazinyl]butyl]-1,5-methano-6,7,9-metheno-2H-pentaleno[1,2-d]azepine-2,4(3H)-dione]: the results for the ED50 in test [1] (setting [5]), in test [1] (setting [6]) and in test [4] were 5.44 mg/kg, 32.3 mg/kg and 40.2 mg/kg, respectively. The compound further gave an inhibition in vivo at 40 mg/kg in test [2] of approximately 80%. On D-2 dopamine receptor, this compound came in with an inhibition at 1 µM of 51%. Affinity in test [3] was put at a Ki of 4 nM.

Take `O=C1C2CC(C(=O)N1CCCCN1CCN(c3cccc(C(F)(F)F)c3)CC1)C1C2C2C3CC4C2C4C31` (centres unmarked) [Example 12, Decahydro-3-[4-[4-(3-trifluoromethylphenyl)-1-piperazinyl]butyl]-1,5-methano-6,7,9-metheno-2H-pentaleno[1,2-d]azepine-2,4(3H)-dione]: in test [1], the “Apomorphine antagonism ED50, climbing” value was “inactive” and the “Apomorphine antagonism ED50, stereotypy” value is “inactive”. In test [2], the inhibition in vivo at 40 mg/kg is less than 20%. Besides, affinity on D-2 dopamine receptor was put at a Ki of 30 nM. For the same compound, the affinity in test [3], expressed as Ki, was 0.2 nM.

On to `O=C1C2CC(C(=O)N1CCCCN1CCN(c3ncccn3)CC1)C1CC=CC21` (centres unmarked) [Example 4, 5,5a,8,8a-Tetrahydro-3-[4-[4-(2-pyrimidinyl)-1-piperazinyl]butyl]1,5-methanocyclopent[d]azepine-2,4(1H,3H)-dione], for which the ED50 in test [1] (setting [5]) was 5.5 mg/kg. Further, the “Apomorphine antagonism ED50, stereotypy” value in test [1] was “inactive”. Moreover, the inhibition in vivo at 40 mg/kg in test [2] is approximately 80%. This compound gave an inhibition at 1 µM at D-2 dopamine receptor of 59%. Also, the Ki in test [3] came to 3.5 nM. For the same compound, the “Conditioned avoidance” value in test [4] is “weak”.

For `O=C1C2CC(C(=O)N1CCCCN1CCN(c3cncc(Cl)n3)CC1)C1CCCC21` (centres unmarked) [Example 2, Hexahydro-3-[4-[4-(6-chloro-2-pyrazinyl)-1-piperazinyl]butyl]-1,5-methanocyclopent[d]azepine-2,4(1H,3H)-dione], the ED50 in test [1] (setting [5]) is 24.2 mg/kg. Also, the “Apomorphine antagonism ED50, stereotypy” value in test [1] is “inactive”. In test [2], this compound gave an inhibition in vivo at 40 mg/kg of more than 20%. In addition, the inhibition at 1 µM at D-2 dopamine receptor was found to be 20%. Besides, in test [3], the Ki was determined as 31 nM. For the same compound, the “Conditioned avoidance” value in test [4] is “inactive”.

With `COc1ccccc1N1CCN(CCCCN2C(=O)C3CC(C2=O)C2C3C3C4CC5C3C5C42)CC1` (centres unmarked) [Example 10, Decahydro-3-[4-[4-(2-methoxyphenyl)-1-piperazinyl]butyl]-1,5-methano-6,7,9-metheno-2H-pentaleno[1,2-d]azepine-2,4(3H)-dione], the values for the ED50 in test [1] (setting [5]) and in test [1] (setting [6]) were 4.71 mg/kg and 10 mg/kg, respectively. In addition, the inhibition in vivo at 40 mg/kg in test [2] is more than 20%. Besides, the Ki on D-2 dopamine receptor was found to be 18 nM; in test [3] it was 0.29 nM. For the same compound, in test [4], the “Conditioned avoidance” value is “inactive”.

With `CN(C)CCCN1c2ccccc2Sc2ccc(Cl)cc21` [chlorpromazine, reference compound], in test [1], the “Ratio of the ED50 for stereotyped behavior to the ED50 for climbing” value was found to be 1.51.

Take `O=C1CC2(CCCC2)CC(=O)N1CCCCN1CCN(c2ncccn2)CC1` [buspirone, reference compound]: in test [3] ([3H] 8-OH DPAT displacement), the “Affinity for 5-HT1A serotonin receptor (in words)” value is given as “potent affinity”.
